Reference: patent publication US20110065687A1, “HYDRAZIDE COMPOUNDS AND USES THEREOF” (priority 2007, published 2011)

Tests used:
Assay type in all cases: cell-based
[1] = tested on: rRNA synthesis from 45S rDNA; experiment: QPCR assay of rRNA synthesis; settings: IC50 pertaining to rRNA synthesis, PCR with 5' ETS probe
Protocol: A representative assay for determining whether a compound modulates rRNA production is set forth hereafter. Assays were conducted to determine the effects of compounds on rRNA synthesis from 45S rDNA. Synthesized rRNA was quantified by a polymerase chain reaction (PCR) assay. A primer/probe set was designed using Primer Express software and synthesized by Applied Biosystems. The 5′ ETS Probe utilized had the following sequence (at its 3′ end): 6FAM-TTG ATC CTG CCA GTA GC-MGBNFQ. The primer sequences were as follows:
(§1) Step 1. Reverse transcription of RNA to DNA
(§2) Fluorescence of digested label was detected and quantified. The effect of the compounds on rRNA synthesis were assessed in the assay, and provided in the table hereafter are IC50 values of selected compounds pertaining to rRNA synthesis and cMYC RNA synthesis.

[2] = tested on: HCT-116 human colorectal carcinoma cells; experiment: Alamar Blue cell proliferation assay, HCT-116; settings: 96 h, anti-proliferative effect, about four days with compound, HCT-116 cells, read-out: AB: HCT-116
Protocol: (§3) A representative cell-proliferation assay protocol using Alamar Blue dye (stored at 4° C., use 20 ul per well) is described hereafter.
(§4) a. Split and trypsinize cells.
(§5) b. Count cells using hemocytometer.
(§6) c. Plate 4,000-5,000 cells per well in 100 μl of medium and seed into a 96-well plate according to the following plate layout. Add cell culture medium only to wells B10 to B12. Wells B1 to B9 have cells but no compound added.
(§7) d. Add 100 μl of 2× drug dilution to each well in a concentration shown in the plate layout above. At the same time, add 100 μl of media into the control wells (wells B10 to B12). Total volume is 200 μl /well.
(§8) e. Incubate four (4) days at 37° C., 5% CO2 in a humidified incubator.
(§9) f. Add 20 μl Alamar Blue reagent to each well.
(§10) g. Incubate for four (4) hours at 37° C., 5% CO2 in a humidified incubator.
(§11) h. Record fluorescence at an excitation wavelength of 544 nm and emission wavelength of 590 nm using a microplate reader.
(§12) In the assays, cells are cultured with a test compound for approximately four days, the dye then is added to the cells and fluorescence of […] dye is detected after approximately four hours. Different types of cells can be utilized in the assays (e.g., HCT-116 human colorectal carcinoma cells, PC-3 human prostatic cancer cells and MiaPaca human pancreatic carcinoma cells). Anti-proliferative effects of representative compounds are provided in the Table below (i.e., “AB: HCT-116” and “AB: MiaPaCa” columns).

[3] = tested on: MiaPaca human pancreatic carcinoma cells; experiment: Alamar Blue cell proliferation assay, MiaPaCa; settings: MIA PaCa-2, 96 h, anti-proliferative effect, about four days with compound, read-out: AB: MiaPaCa
Protocol: as §3, §4, §5, §6, §7, §8, §9, §10, §11, §12

[4] = tested on: C-myc transcription (cMYC RNA synthesis); experiment: QPCR control assay of C-myc transcription; settings: IC50 pertaining to cMYC RNA synthesis
Protocol: A control assay that detected effects of the compounds on C-myc transcription also was conducted using a primer/probe set purchased from ABI (TaqMan Gene Expression Assay with assay ID: Hs99999003_m1). The following assay protocol was utilized:
as §1, §2

| SMILES | IC50 [1] [µM] | IC50 [2] [µM] | IC50 [3] [µM] | IC50 [4] [µM] |
| --- | --- | --- | --- | --- |
| CN1CCN(NC(=O)c2c(=O)c3cc(F)c(NN4CCN(C)CC4)nc3n3c2sc2ccccc23)CC1 [Cmpd 5] | 0.632 | 1.75 | 0.486 | – |
| CN1CCN(NC(=O)c2c(=O)c3ccc(N4CCOCC4)nc3n3c2sc2ccccc23)CC1 [Cmpd 1] | 0.148 | 0.096 | – | 1.19 |
| CN1CCN(NC(=O)c2c(=O)c3ccc(N(C)Cc4cnccn4)nc3n3c2sc2ccccc23)CC1 [Cmpd 2] | 0.696 | 0.249 | 1.48 | – |
| O=C(NN1CCCCC1)c1c(=O)c2ccc(N3CCOCC3)nc2n2c1sc1ccccc12 [Cmpd 8] | 0.458 | ≥ 50 | ≥ 50 | 23.6 |
| CN(C)NC(=O)c1c(=O)c2ccc(N3CCOCC3)nc2n2c1sc1ccccc12 [Cmpd 10] | 0.414 | 0.523 | 0.444 | 8.99 |
| CN1CCN(NC(=O)c2c(=O)c3cc(F)c(N(C)Cc4cnccn4)nc3n3c2sc2ccccc23)CC1 [Cmpd 4] | 0.291 | 0.517 | 0.173 | 7.01 |
| CN1CCN(NC(=O)c2c(=O)c3ccc(N4CCC(O)C4)nc3n3c2sc2ccccc23)CC1 (stereo not drawn) [Cmpd 13] | 7.32 | 5.88 | 3.31 | – |
| O=C(NNC1=NCCN1)c1c(=O)c2cc(F)c(N3CCOCC3)nc2n2c1sc1ccccc12 [Cmpd 17] | 0.038 | 0.001 | 0.003 | 1.1 |
| CN1CCN(NC(=O)c2c(=O)c3ccc(NCCF)nc3n3c2sc2ccccc23)CC1 [Cmpd 12] | 1.58 | 0.693 | 1.03 | – |
| COc1ccc(CNc2ccc3c(=O)c(C(=O)NN4CCN(C)CC4)c4sc5ccccc5n4c3n2)cc1 [Cmpd 18] | 1.29 | 0.985 | 0.893 | – |
| CN1CCN(NC(=O)c2c(=O)c3ccc(N4CCCCC4)nc3n3c2sc2ccccc23)CC1 [Cmpd 11] | 3.14 | 0.915 | 0.74 | – |
| CN(C)NC(=O)c1c(=O)c2ccc(N3CCOCC3)nc2n2c1[nH]c1ccccc12 [Cmpd 23] | – | 1.64 | – | – |
| O=C(NN1CCOCC1)c1c(=O)c2ccc(N3CCOCC3)nc2n2c1sc1ccccc12 [Cmpd 6] | 0.702 | 0.562 | 0.549 | – |
| CN1CCN(NC(=O)c2c(=O)c3ccc(N4CCOCC4)nc3n3c2[nH]c2ccccc23)CC1 [Cmpd 24] | – | 1.42 | – | – |
| O=C(Nn1cnnc1)c1c(=O)c2cc(F)c(N3CCOCC3)nc2n2c1sc1ccccc12 [Cmpd 16] | 0.35 | 0.292 | 0.715 | 14 |
| COC[C@H]1CCCN1NC(=O)c1c(=O)c2ccc(N3CCOCC3)nc2n2c1sc1ccccc12 [Cmpd 9] | 0.72 | 1.17 | 0.596 | – |
| CN1CCN(NC(=O)c2c(=O)c3ccc(-c4ccc(CO)cc4)nc3n3c2sc2ccccc23)CC1 [Cmpd 20] | 9.71 | 7.14 | ≥ 50 | – |
| CN1CCN(NC(=O)c2c(=O)c3cc(F)c(N4CCOCC4)nc3n3c2sc2ccccc23)CC1 [Cmpd 3] | 0.102 | 0.265 | 0.225 | 6.06 |
| Cn1c2ccccc2n2c3nc(N4CCOCC4)c(F)cc3c(=O)c(C(=O)NN3CCOCC3)c12 [Cmpd 21] | – | 0.662 | 1.3 | – |
| O=C(NNc1ccccn1)c1c(=O)c2cc(F)c(N3CCOCC3)nc2n2c1sc1ccccc12 [Cmpd 15] | 5.55 | 1.31 | 5.36 | – |
| O=C(NN1CCOCC1)c1c(=O)c2cc(F)c(N3CCOCC3)nc2n2c1sc1ccccc12 [Cmpd 14] | 2.24 | 0.69 | 8.09 | – |
| O=C(NN1CCCC1)c1c(=O)c2ccc(N3CCOCC3)nc2n2c1sc1ccccc12 [Cmpd 7] | 0.714 | 0.653 | 0.955 | – |
| CN(C)NC(=O)c1c(=O)c2cc(F)c(N3CCOCC3)nc2n2c3ccccc3n(C)c12 [Cmpd 22] | – | 1.41 | 2.19 | – |
